Experimental data published in US20250376461A1, “INDAZOLE DERIVATIVES FOR TREATING TRPM3-MEDIATED DISORDERS” (Katholieke Universiteit Leuven, priority 2022, published 2025).

Biological target: T1, mouse TRPM3α2 (mTRPM3) ion channel (Mus musculus, UniProt J9SQF3)
T1 construct: expressed in transfected cells; host or cells: flip-in HEK293
Test: TRPM3 ion channel driven Ca2+ uptake, Fluo-4 AM assay, mTRPM3alpha2 overexpressing flip-in HEK293 cells stimulated with pregnenolone sulfate (50 μM)
Format: cell-based
Conditions: mTRPM3 overexpressing HEK293 cells stimulated with pregnenolone sulfate (50 μM), activity ranges A, B, C
Description: Monitoring the TRPM3 Ion Channel Driven Ca2+ Uptake.
In order to monitor the inhibition of the mouse TRPM3α2 (mTRPM3) ion channel by the compounds of the invention, a cellular system making use of an mTRPM3alpha2 or hTRPM3 overexpressing cell line (flip-in HEK293) was used. The TRPM3 channel was stimulated/opened with Pregnenolone sulfate (PS) (50 μM) which results in Ca^2+ influx.
For mTRPM3, the intracellular Ca^2+ was measured with a Calcium responsive dye, Fluor-4 AM ester (Invitrogen). Cells were cultured until a confluence of 80-90%, washed with Versene (Invitrogen) and detached from the surface by a short incubation with 0.05% Trypsin (Invitrogen). The trypsination process was stopped by the addition of complete cell culture medium (DMEM, glutamax, 10% FCS, NEAA, Pen-Strep). Cells were collected and resuspended in Krebs buffer without Calcium at RT.
Prior the cell seeding (±2000 cells/well into a black, 384 well plate (Greiner)) the diluted compound was added in the assay plate, together with the PS dissolved in Krebs buffer containing Calcium. […] Directly after cell addition the plates were read on an Envision fluorescence reader (Perkin Elmer) by an Excitation of 485 nm and emission at 535 nm.
Channel inhibition was calculated compared to a non-PS stimulated control versus a condition stimulated with PS (50 μM) with vehicle. The ability of the compounds of the invention to inhibit this activity was determined as: Percentage inhibition=[1−((RFU determined for sample with test compound present−RFU determined for sample with positive control inhibitor) divided by (RFU determined in the presence of vehicle−RFU determined for sample with positive control inhibitor))]*100.
The activities of the Example compounds cpd 001-262 tested are depicted in the table below. All tested compounds show an activity in the Fluo-4 AM assay. The activity ranges A, B and C refer to IC50 values in the Fluo-4 AM assay as follows: “A”: IC50<1 μM; “B”: 1 μM≤IC50≤20 μM and “C”: IC50>20 μM.

T1 sequence (J9SQF3 1-1709 isoform J9SQF3-12): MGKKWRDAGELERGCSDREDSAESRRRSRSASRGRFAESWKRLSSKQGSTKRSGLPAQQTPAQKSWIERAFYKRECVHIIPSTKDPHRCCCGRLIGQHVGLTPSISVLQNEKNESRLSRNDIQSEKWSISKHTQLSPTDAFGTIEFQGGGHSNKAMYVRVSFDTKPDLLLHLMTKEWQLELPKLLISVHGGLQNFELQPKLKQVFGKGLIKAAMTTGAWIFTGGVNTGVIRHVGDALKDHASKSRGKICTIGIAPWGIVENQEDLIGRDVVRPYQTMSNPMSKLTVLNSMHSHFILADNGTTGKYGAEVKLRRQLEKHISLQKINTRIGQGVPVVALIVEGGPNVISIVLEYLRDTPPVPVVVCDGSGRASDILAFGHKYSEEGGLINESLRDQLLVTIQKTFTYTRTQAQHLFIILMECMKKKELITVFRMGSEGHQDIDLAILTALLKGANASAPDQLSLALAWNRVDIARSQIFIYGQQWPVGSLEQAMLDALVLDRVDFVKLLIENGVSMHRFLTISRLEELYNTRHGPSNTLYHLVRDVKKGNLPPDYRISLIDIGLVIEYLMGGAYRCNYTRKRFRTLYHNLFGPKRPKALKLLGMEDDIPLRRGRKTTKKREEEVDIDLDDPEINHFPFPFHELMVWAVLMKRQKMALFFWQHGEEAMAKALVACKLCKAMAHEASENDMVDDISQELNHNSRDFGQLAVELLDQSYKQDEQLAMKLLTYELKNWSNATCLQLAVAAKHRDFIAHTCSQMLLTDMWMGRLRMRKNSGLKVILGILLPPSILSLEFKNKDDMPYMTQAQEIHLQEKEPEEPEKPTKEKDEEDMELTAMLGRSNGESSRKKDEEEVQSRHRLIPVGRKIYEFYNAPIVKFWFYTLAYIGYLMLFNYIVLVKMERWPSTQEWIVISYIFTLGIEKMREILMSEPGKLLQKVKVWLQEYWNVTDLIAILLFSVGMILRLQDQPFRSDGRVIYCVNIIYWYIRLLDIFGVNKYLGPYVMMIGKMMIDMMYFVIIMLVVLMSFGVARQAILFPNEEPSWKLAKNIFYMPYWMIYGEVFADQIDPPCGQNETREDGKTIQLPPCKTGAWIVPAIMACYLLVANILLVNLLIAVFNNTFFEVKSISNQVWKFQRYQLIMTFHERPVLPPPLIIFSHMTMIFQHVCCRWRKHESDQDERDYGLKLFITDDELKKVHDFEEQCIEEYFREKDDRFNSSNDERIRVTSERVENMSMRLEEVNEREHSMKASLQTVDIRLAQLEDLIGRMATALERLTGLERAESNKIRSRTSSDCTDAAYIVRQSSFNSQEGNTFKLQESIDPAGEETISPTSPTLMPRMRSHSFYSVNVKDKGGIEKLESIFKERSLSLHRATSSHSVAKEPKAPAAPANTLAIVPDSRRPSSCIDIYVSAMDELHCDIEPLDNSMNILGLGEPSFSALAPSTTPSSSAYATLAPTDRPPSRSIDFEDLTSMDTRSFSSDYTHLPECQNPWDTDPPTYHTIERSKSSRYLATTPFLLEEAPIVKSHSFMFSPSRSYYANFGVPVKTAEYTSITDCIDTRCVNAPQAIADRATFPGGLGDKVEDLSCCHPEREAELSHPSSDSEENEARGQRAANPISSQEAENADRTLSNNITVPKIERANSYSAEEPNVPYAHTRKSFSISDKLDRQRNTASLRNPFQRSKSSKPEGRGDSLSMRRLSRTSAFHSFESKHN

Row | SMILES | IC50 [µM]
1 | Cn1nc2ccc(OCc3ccccc3)cc2c1C(=O)NC1CNCC1(F)F (single isomer, unassigned) [Cpd 002 - En1, 5-(benzyloxy)-N-(4,4-difluoropyrrolidin-3-yl)-2-methyl-2H-indazole-3-carboxamide] | > 20
2 | Cn1nc2ccc(OCc3ccccc3)cc2c1C(=O)NC1CNCC1(F)F (single isomer, unassigned) [Cpd 002 - En2, 5-(benzyloxy)-N-(4,4-difluoropyrrolidin-3-yl)-2-methyl-2H-indazole-3-carboxamide] | 1 to 20
3 | Cn1nc2ccc(OCc3cccnc3C(F)(F)F)cc2c1C(=O)NC1CCNCC1(F)F (single isomer, unassigned) [Cpd 003 - En1] | < 1
4 | Cn1nc2ccc(OCc3cccnc3C(F)(F)F)cc2c1C(=O)NC1CCNCC1(F)F (single isomer, unassigned) [Cpd 003 - En2] | 1 to 20
5 | Cn1nc2ccc(OCc3cccnc3C(F)(F)F)cc2c1C(=O)N[C@@H]1COC[C@@H]1O (single isomer, unassigned) [Cpd 010 - Dia1] | 1 to 20
6 | Cn1nc2ccc(OCc3cccnc3C(F)(F)F)cc2c1C(=O)N[C@@H]1COC[C@@H]1O (single isomer, unassigned) [Cpd 010 - Dia2] | 1 to 20
7 | Cn1nc2ccc(OCc3ccccc3)cc2c1C(=O)N[C@@H]1COC[C@H]1O (single isomer, unassigned) [Cpd 011 - Dia1] | 1 to 20
8 | Cn1nc2ccc(OCc3ccccc3)cc2c1C(=O)N[C@@H]1COC[C@H]1O (single isomer, unassigned) [Cpd 011 - Dia2] | 1 to 20
9 | Cc1ncsc1COc1ccc2nn(C)c(C(=O)NC3COCC3O)c2c1 (single isomer, unassigned) [Cpd 080 - Dia1] | 1 to 20
10 | Cc1ncsc1COc1ccc2nn(C)c(C(=O)NC3COCC3O)c2c1 (single isomer, unassigned) [Cpd 080 - Dia2] | > 20
11 | Cn1nc2ccc(OCc3ccccn3)cc2c1C(=O)NC1CCNCC1(F)F (single isomer, unassigned) [Cpd 128 - En1] | 1 to 20
12 | Cn1nc2ccc(OCc3ccccn3)cc2c1C(=O)NC1CCNCC1(F)F (single isomer, unassigned) [Cpd 128 - En2] | > 20
13 | Cc1ncsc1COc1ccc2nn(C)c(C(=O)NC3CCNCC3(F)F)c2c1 (single isomer, unassigned) [Cpd 132 - En1] | 1 to 20
14 | Cc1ncsc1COc1ccc2nn(C)c(C(=O)NC3CCNCC3(F)F)c2c1 (single isomer, unassigned) [Cpd 132 - En2] | 1 to 20
15 | Cn1nc2ccc(OCC3CCC3)cc2c1C(=O)NC1(CO)CCNC1=O (single isomer, unassigned) [Cpd 159 - En1] | 1 to 20
16 | Cn1nc2ccc(OCC3CCC3)cc2c1C(=O)NC1(CO)CCNC1=O (single isomer, unassigned) [Cpd 159 - En2] | < 1
17 | Cn1nc2ccc(OCC3CC3)cc2c1C(=O)NC1(CO)CCNC1=O (single isomer, unassigned) [Cpd 161 - En1] | < 1
18 | Cn1nc2ccc(OCC3CC3)cc2c1C(=O)NC1(CO)CCNC1=O (single isomer, unassigned) [Cpd 161 - En2] | > 20
19 | Cc1ncsc1COc1ccc2nn(C)c(C(=O)NC3(CO)CCNC3=O)c2c1 (single isomer, unassigned) [Cpd 163 - En1, N-[3-(hydroxymethyl)-2-oxopyrrolidin-3-yl]-2-methyl-5-[(4-methyl-1,3-thiazol-5-yl)methoxy]-2H-indazole-3-carboxamide] | < 1
20 | Cn1nc2ccc(OCC3CC3)cc2c1C(=O)NC1(C(N)=O)CCOC1 (single isomer, unassigned) [Cpd 165 - En1] | 1 to 20
21 | Cn1nc2ccc(OCC3CC3)cc2c1C(=O)NC1(C(N)=O)CCOC1 (single isomer, unassigned) [Cpd 165 - En2] | > 20

The next lines start with the values.

Row | IC50 [µM] | SMILES
22 | 1 to 20 | Cn1nccc1COc1ccc2nn(C)c(C(=O)NC3COCC3O)c2c1 (single isomer, unassigned) [Cpd 056 - Dia1]
23 | > 20 | Cn1nccc1COc1ccc2nn(C)c(C(=O)NC3COCC3O)c2c1 (single isomer, unassigned) [Cpd 056 - Dia2]
24 | < 1 | Cc1ncsc1COc1ccc2nn(C)c(C(=O)NC(C)(CO)C(N)=O)c2c1 (single isomer, unassigned) [Cpd 151 - En1]
25 | 1 to 20 | Cc1ncsc1COc1ccc2nn(C)c(C(=O)NC(C)(CO)C(N)=O)c2c1 (single isomer, unassigned) [Cpd 151 - En2]
26 | > 20 | Cn1nccc1COc1ccc2nn(C)c(C(=O)NC(C)(CO)C(N)=O)c2c1 (single isomer, unassigned) [Cpd 154 - En1]
27 | < 1 | Cn1nccc1COc1ccc2nn(C)c(C(=O)NC(C)(CO)C(N)=O)c2c1 (single isomer, unassigned) [Cpd 154 - En2]
28 | > 20 | Cn1ccc(COc2ccc3nn(C)c(C(=O)NC(C)(CO)C(N)=O)c3c2)n1 (single isomer, unassigned) [Cpd 155 - En1]
29 | 1 to 20 | Cn1ccc(COc2ccc3nn(C)c(C(=O)NC(C)(CO)C(N)=O)c3c2)n1 (single isomer, unassigned) [Cpd 155 - En2]
30 | 1 to 20 | Cc1ncc(COc2ccc3nn(C)c(C(=O)NC(C)(CO)C(N)=O)c3c2)s1 (single isomer, unassigned) [Cpd 157 - En1, 3-hydroxy-2-methyl-2-({2-methyl-5-[(2-methyl-1,3-thiazol-5-yl)methoxy]-2H-indazol-3-yl}formamido)propanamide]
31 | < 1 | Cc1ncc(COc2ccc3nn(C)c(C(=O)NC(C)(CO)C(N)=O)c3c2)s1 (single isomer, unassigned) [Cpd 157 - En2, 3-hydroxy-2-methyl-2-({2-methyl-5-[(2-methyl-1,3-thiazol-5-yl)methoxy]-2H-indazol-3-yl}formamido)propanamide]
32 | 1 to 20 | Cn1nc2ccc(OCC3CCOCC3)cc2c1C(=O)NC(C)(CO)C(N)=O (single isomer, unassigned) [Cpd 158 - En1]
33 | > 20 | Cn1nc2ccc(OCC3CCOCC3)cc2c1C(=O)NC(C)(CO)C(N)=O (single isomer, unassigned) [Cpd 158 - En2]
34 | 1 to 20 | Cc1nc(COc2ccc3nn(C)c(C(=O)NC(C)(CO)C(N)=O)c3c2)cs1 (single isomer, unassigned) [Cpd 160 - En1]
35 | < 1 | Cc1nc(COc2ccc3nn(C)c(C(=O)NC(C)(CO)C(N)=O)c3c2)cs1 (single isomer, unassigned) [Cpd 160 - En2]
36 | 1 to 20 | Cn1nc2ccc(OCc3ccccn3)cc2c1C(=O)NC(C)(CO)C(N)=O (single isomer, unassigned) [Cpd 162 - En1]
37 | < 1 | Cn1nc2ccc(OCc3ccccn3)cc2c1C(=O)NC(C)(CO)C(N)=O (single isomer, unassigned) [Cpd 162 - En2]
38 | 1 to 20 | Cc1ncsc1COc1ccc2nn(C)c(C(=O)NC3(CO)CCNC3=O)c2c1 (single isomer, unassigned) [Cpd 163 - En2, N-[3-(hydroxymethyl)-2-oxopyrrolidin-3-yl]-2-methyl-5-[(4-methyl-1,3-thiazol-5-yl)methoxy]-2H-indazole-3-carboxamide]
39 | 1 to 20 | Cc1ccc(COc2ccc3nn(C)c(C(=O)NC4(C(N)=O)CCOC4)c3c2)cn1 (single isomer, unassigned) [Cpd 164 - En1, N-(3-carbamoyloxolan-3-yl)-2-methyl-5-[(6-methylpyridin-3-yl)methoxy]-2H-indazole-3-carboxamide]
40 | 1 to 20 | Cc1ccc(COc2ccc3nn(C)c(C(=O)NC4(C(N)=O)CCOC4)c3c2)cn1 (single isomer, unassigned) [Cpd 164 - En2, N-(3-carbamoyloxolan-3-yl)-2-methyl-5-[(6-methylpyridin-3-yl)methoxy]-2H-indazole-3-carboxamide]
41 | 1 to 20 | Cn1nc2ccc(OCc3ccccc3F)cc2c1C(=O)NC1(C(N)=O)CCOC1 (single isomer, unassigned) [Cpd 166 - En1]
42 | < 1 | Cn1nc2ccc(OCc3ccccc3F)cc2c1C(=O)NC1(C(N)=O)CCOC1 (single isomer, unassigned) [Cpd 166 - En2]
43 | > 20 | Cn1nc2ccc(OCC3COC3)cc2c1C(=O)NC(C)(CO)C(N)=O (single isomer, unassigned) [Cpd 167 - En1]
44 | > 20 | Cn1nc2ccc(OCC3COC3)cc2c1C(=O)NC(C)(CO)C(N)=O (single isomer, unassigned) [Cpd 167 - En2]
45 | 1 to 20 | Cn1nc2ccc(OCc3cccnc3)cc2c1C(=O)NC1(C(N)=O)CCOC1 (single isomer, unassigned) [Cpd 168 - En1]
46 | < 1 | Cn1nc2ccc(OCc3cccnc3)cc2c1C(=O)NC1(C(N)=O)CCOC1 (single isomer, unassigned) [Cpd 168 - En2]
